Assay results published in PubChem BioAssay AID179 (DTP/NCI, 2004).
Several values for one entry are separate records, joined by “and”; a condition that tells them apart may be missing. Identical values can stand only once. Activity calls are given as the source filed them.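 Rule for the calls: active = compounds giving half or more protection of infected cells from virus-caused growth loss, again on retest; inactive = the rest.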 Where a SMILES comes first, the peptide text is derived from it. The star is where a group is joined. Cbz = O=C(OCc1ccccc1)*; NHNH2 = NN*

System: CEM cells HIV-1 protection, formazan growth assay
Experiment: NCI AIDS Antiviral Assay
Settings: for IC50: measured here: growth of uninfected CEM cells
How it was run: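 Protection of CEM cells against HIV-1 was scored from cell growth (soluble formazan) across five concentrations, with parallel uninfected cells. Lack of protection may reflect toxicity.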

Structure (SMILES)	EC50 [µM]	IC50	outcome
O=C(Nc1ccc(C2=NCCN2)cc1)c1ccc(C(=O)Nc2ccc(C3=NCCN3)cc2)c([N+](=O)[O-])c1	> 200	29.5 µM	–
Cc1ccc(/C(O)=C/c2nc3c(nc2NC24CC5CC(CC(C5)C2)C4)c(=O)oc2ccccc23)cc1	> 2.19	> 2.19 µM	–
CC(C)(C)OC(=O)NC(Cc1ccc(O)cn1)C(N)=O (configuration not stated)	> 200	> 200 µM	–
CCC1OC(=O)C(C)C(OC2CC(C)(O)C(O)C(C)O2)C(C)C(O)C(C)(O)CC(C)C(=O)C(C)C(O)C1C (configuration not stated)	> 229	21.4 µM	–
C(=C/[PH+](c1ccccc1)c1ccccc1)/[PH+](c1ccccc1)c1ccccc1.[C-]#[O+].[C-]#[O+].[C-]#[O+].[C-]#[O+].[C-]#[O+].[Mo+2].[Mo+4].[c-]1[c-][c-][cH-][c-]1.[c-]1[c-][c-][cH-][c-]1	> 6.03	3.31 µM	–
COC1=C(C)C(=O)c2nc(Cl)ccc2C1=O	–	–	inactive
Nc1ccc(/C=C/c2ccc(N=Nc3cc(S(=O)(=O)O)c4cccnc4c3O)cc2S(=O)(=O)O)c(S(=O)(=O)O)c1	34.7	> 200 µM	–
CN(c1ccccc1Cl)S(=O)(=O)c1ccccc1	> 200	70.8 µM	–
Cn1c(=O)c2nc3n(c2n(C)c1=O)C(=O)C(C#N)N=N3 (configuration not stated)	> 200	> 200 µM	–
CC(C)(C)Sc1nnc(SC(C)(C)C)c2c(=O)[nH]nc(SC(C)(C)C)c12	–	–	inactive
O=Nc1ccc(O)c(Cl)c1	> 200	13.2 µM	–
O=C(Nc1ccc(Br)cc1)c1cc(Br)ccc1O	> 200	4.37 µM	–
C/C(=N\NC(=O)CC#N)C(CN1CCCCC1)C(c1ccccc1)c1c(O)c2ccccc2oc1=O (configuration not stated)	> 70.8	40.7 µM	–
CCOC(=O)C1C(c2ccc(OC)cc2)C(C(=O)OCC)C(O)(C(F)(F)F)OC1(O)C(F)(F)F (configuration not stated)	> 257	151 µM	–
C/C(CCn1[nH]c(=O)ccc1=O)=N\NC(=O)C(=O)NN	> 1.95	> 1.95 µM	–
CC(C)(C)c1cc(CCC(=O)Nc2ccccc2[N+](=O)[O-])cc(NC#N)n1	–	–	inactive
CC1(C)CN=C(Nc2cccc(C(F)(F)F)c2)S1	> 200	41.7 µM	–
c1ccc(-c2csc3c2-n2cccc2C3N2CCCC2)cc1 (configuration not stated)	> 200	13.5 µM	–
CC1CCCC2=C1C(c1ccc(Cl)cc1)n1c(s/c(=C\c3ccc(Cl)cc3)c1=O)=N2 (configuration not stated)	–	–	inactive
CC(C)(C)n1c(=O)n2n(c1=O)C1c3cccc4cccc(c34)C2C2c3cccc4cccc(c34)C1n1c(=O)n(C(C)(C)C)c(=O)n12	> 200	50.1 µM	–
O=c1oc2ccccc2cc1F	> 302	> 302 µM	–

Structure (SMILES)	EC50 [µM]	IC50	outcome
CC(CC12C=CC3(OO1)C(C)(C)CCCC3(C)O2)OC(=O)c1ccccc1 (configuration not stated)	> 200	7.08 µM and 11.2 µM	–
O=C(c1ccccc1)N1C(=S)N=C(Nc2ccccc2)C1=Nc1ccccc1	> 200	> 200 µM	–
CN1CCC23CCCC[C@H]2C1CC1=C3CC(=O)CC1 (some centres not stated)	> 692	263 µM	–
O=C(O)/C(O)=C1/C=C(c2ccccc2)c2ccccc21	–	–	inactive
C=CCOCn1cnc2c(N)ncnc21	–	–	inactive
c1ccc(Nc2nnc(-c3nsc4ccccc34)o2)cc1	> 24.5	> 24.5 µM	–
COC(=O)C1(Cc2ccc3c(c2)CCC3)Cc2cc3c(cc2C1=O)CCC3 (configuration not stated)	> 200	30.9 µM	–
Cc1ccc(/C(O)=C/c2nc3ccccc3nc2NC23CC4CC(CC(C4)C2)C3)cc1	> 200	> 200 µM	–
CC1CC(C2=CC=CCS2)=Nc2ccccc2S1 (configuration not stated)	> 55	53.7 µM	–
CC(=O)Oc1ccc2c(c1)Cc1cc(N=[N+]([O-])c3ccc4c(c3)Cc3cc(OC(C)=O)ccc3-4)ccc1-2	> 200	> 200 µM	–
Clc1c(Cl)c(Cl)c2nn(C3CCCO3)nc2c1Cl (configuration not stated)	> 200	39.8 µM	–
CCCCCCc1cc2c(C)c(C)c(=O)oc2cc1OCCCOc1cc2oc(=O)c(C)c(C)c2cc1CCCCCC	> 22.9	> 22.9 µM	–
Cc1ccc(C2(O)c3ccccc3C(=O)N(C)C2(O)c2ccc(C)cc2)cc1 (configuration not stated)	> 200	12.9 µM	–
CC(C)(C)[Si](C)(C)OCC1OC(n2ccc(=O)[nH]c2=O)C(O[Si](C)(C)C(C)(C)C)[C@]12O[C@@H]2CO (some centres not stated)	> 200	13.2 µM	–
C[N+]1(CCNP(=S)(NCC[N+]2(C)Cc3c(ccc4c3OCO4)C3C2c2cc4c(cc2C[C@@H]3O)OCO4)NCC[N+]2(C)Cc3c(ccc4c3OCO4)C3C2c2cc4c(cc2C[C@@H]3O)OCO4)Cc2c(ccc3c2OCO3)C2C1c1cc3c(cc1C[C@H]2O)OCO3 (some centres not stated)	> 380	4.68 µM	–
COC(C/C(=C/CO[Si](C(C)C)(C(C)C)C(C)C)C(=O)N(C(=O)OC(C)(C)C)c1ccccc1I)OC	> 200	77.6 µM	–
O=C1CC2c3c(OCc4ccccc4)cccc3OC2O1 (configuration not stated)	> 47.9	> 47.9 µM	–
COc1ccccc1NC(=O)CC(=O)N/N=C/c1ccc(N(CCC#N)S(=O)(=O)c2ccccc2)cc1	> 182	> 182 µM	–
CCOC(=O)c1sc2c(c1OC(=O)c1cccs1)c(=O)n(-c1ccccc1)c(=S)n2-c1ccccc1	> 200	6.92 µM	–
CN1C2CCCC1CC(=O)NC2 (configuration not stated)	> 1480	> 1480 µM	–
O=c1[nH]c2ccccc2c(=O)n1/N=C\c1ccccc1O	> 200	> 200 µM	–

Structure (SMILES)	EC50 [µM]	IC50	outcome
CC12CCC(C(Nc3ccccn3)C1=O)C2(C)C (configuration not stated)	–	–	inactive
O=C(CN1CCN(c2ccccc2)CC1)c1ccc2[nH]c(=O)oc2c1	> 200	> 200 µM	–
NC(=S)N/N=C\C12CC3CC(CC(C3)C1)C2	–	–	inactive
CC1(C)OC(=O)C(=Cc2ccc(Br)cc2)C(=O)O1	> 417	257 µM	–
O=C(NC1CCCCC1)N1CCNC1=S	> 200	> 200 µM	–
Nc1ncnc2c1ncn2[C@H]1C(CO)[C@@H](CO)C12SCCCS2 (some centres not stated)	> 191	> 191 µM	–
CN(C)c1nc2n(CCO)ccnc-2c(=O)n1	> 100	> 100 µM	–
CN(C)CCOC1(CC2CCCCC2)CCC(C(C)(C)C)CC1 (configuration not stated)	> 200	8.13 µM	–
COP(=O)(OC)/C(C#N)=C/c1ccoc1	> 1100	> 1100 µM	–
Cc1ccc(-c2oc(C=Nc3ccccc3)c([N+](=O)[O-])c2-c2ccc(C)cc2)cc1	> 200	> 200 µM	–
COC1(OC)CCC2C1C1CCC(OC)(OC)C21 (configuration not stated)	> 141	> 141 µM	–
CC(=O)Nc1cc(Cl)cc2[nH]c(C)nc12	> 955	676 µM	–
CN1C2CCC1CC(C)(O)C2 (configuration not stated)	> 200	> 200 µM	–
CC1=C(CCc2ccoc2)[C@@]2(C)CCCC(C)(C)C2C(=O)[C@@H]1O[C@H]1C(=O)C2C(C)(C)CCC[C@]2(C)[C@](O)(CCc2ccoc2)C1C (some centres not stated)	> 4.27	> 4.27 µM	–
Cc1cccc2c1C(=O)[C@@](C)([C@]1(C)Nc3cccc(C)c3C1=O)N2	> 200	> 200 µM	–
C=CCN1CCC(C(=O)CC)(c2ccccc2)CC1	> 355	166 µM	–
CCNc1cc2oc(=O)cc(C)c2cc1C	> 33.1	> 33.1 µM	–
COc1cc(O)c2c(c1)O[C@H](C)[C@H](C)C2=O	100	> 200 µM	–
C=CCN(CCN(CC=C)S(=O)(=O)c1ccc(C)cc1)S(=O)(=O)c1ccc(C)cc1	> 22.4	> 22.4 µM	–
CCOC(=O)CCC(NC(=O)OCc1ccccc1)C(=O)NC(CCC(=O)OCC)C(=O)NN (configuration not stated) (Cbz-Glu(OEt)-Glu(OEt)-NHNH2; configuration not given here)	> 200	> 200 µM	–
Cc1c(CC#N)cc(C)c2c3c([nH]c12)-c1ccccc1CC3	> 26.3	19.1 µM	–

Structure (SMILES)	EC50 [µM]	IC50	outcome
CCOC(=O)C1=CNc2ccccc2N=C1N	> 200	34.7 µM	–
CCOC(=O)c1ncn(CCc2ccc(Cl)cc2)c1C	> 200	> 100 µM	–
CNc1[nH]c(=S)nc2sc3c(c12)CCCC3	> 151	112 µM	–
O=C([CH-]C(=O)c1ccccc1)c1ccccc1.[CH3-].[CH3-].[CH3-].[Sn+4]	> 35.5	> 35.5 µM	–
CCCCCCCCC1C(C)c2c([nH]c3ccccc23)C2C(=O)N(c3ccccc3)C(=O)C21 (configuration not stated)	–	–	inactive
COc1ccc(NC(=O)C(=O)Cc2nc3ccc(C(=O)c4ccccc4)cc3[nH]c2=O)c([N+](=O)[O-])c1	> 195	51.3 µM	–
CN=C1Nc2ccccc2C(=O)N2CSCC12 (configuration not stated)	> 200	> 200 µM	–
NNC(=O)C(=O)N/N=C(\CCC(=O)Nc1ccc(Cl)cc1)Cc1nc2ccccc2s1	> 77.6	14.5 µM	–
COc1cc(C(=O)N2C[C@H](O)C[C@H]2C(=O)O)cc(OC)c1OC	> 200	> 200 µM	–
Nc1ccc2c(c1)C(=O)N(OS(=O)(=O)c1ccccc1)C2=O	–	–	inactive
CCOC(=O)c1c(N2CCCC2)[nH]c(=O)c(C(c2ccco2)c2c(O)c(C(=O)OCC)c(N3CCCC3)[nH]c2=O)c1O	> 200	117 µM	–
O=C(O)CSc1n[nH]c(-c2ccccc2)n1	> 30.9	7.59 µM	–
Cc1cc(=O)oc2c(CNC(CO)C(=O)O)c(O)ccc12 (configuration not stated)	> 200	> 200 µM	–
CC1=CC2C(=O)N(c3ccccc3)C(=O)C2CC1n1[nH]c(=O)n(Cc2ccccc2)c1=O (configuration not stated)	> 302	> 302 µM	–
CN1C=C(C(N)=O)C2CC(O)[C@@](NC(=O)CS(N)(=O)=O)(C(=O)O)C2C1 (some centres not stated)	> 166	3.72 µM	–
O=C(O)c1cc(I)cc(I)c1O	> 646	107 µM	–
O=C1C(Cl)C(c2ccc(Cl)cc2)N1n1cnc2ccccc2c1=O (configuration not stated)	> 18.6	> 18.6 µM	–
CS/C(c1ccccc1)=[N+](/C)[O-]	> 813	589 µM	–
CC(C)OC(=O)C1=C(O)c2ccccc2S(=O)(=O)N1C	> 832	56.2 µM	–
O=C1CCC(=O)N1n1c(Cc2ccccc2)n[nH]c1=O	> 200	> 200 µM	–
NCCCOCC(=O)O	–	–	inactive
